Tests used:
[1] = molecular target: T1, GPx4 bound to DPC micelles (Homo sapiens, UniProt P36969, U73G); assay: 15N-HSQC CSP experiment with GPx4 bound to DPC micelles; assay type: binding; settings: 400 μM analogue, 0.4% DMSO
T1 construct: Truncated U46G-GPx4 with a TEV cleavable poly-histidine tag was inserted into vector; poly-histidine tag with TEV cleavage site; host or cells: BL21 (DE3) E. coli
T1 sequence (P36969 1-170 isoform P36969-2 U46G): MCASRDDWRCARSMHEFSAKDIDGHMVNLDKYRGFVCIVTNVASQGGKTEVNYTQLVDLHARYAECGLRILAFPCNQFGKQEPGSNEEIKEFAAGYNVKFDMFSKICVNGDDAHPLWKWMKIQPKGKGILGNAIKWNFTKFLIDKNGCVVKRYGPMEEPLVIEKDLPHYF
Text: To investigate whether or not these fragments could be built upon and progress to higher affinity binders and potentially inhibitors, a secondary screening approach was used to find analogues of the original fragments. A fragment growing approach was followed due to the high success rate of improving fragment hits.[61],[62] Fragment growing improves binding affinity, or other properties, with the addition of different substitutions and/or expansions.[20] Commercially available analogues of fragments 1 and 5 were found by searching the ChemBridge (San Diego, CA) catalog for analogues with a 60% similarity for fragment 1 and a 70% similarity for fragment 5. A subset of analogues for each fragment was purchased and tested. These two fragments were the main focus for fragment progression due to their observed ability to partition into bilayers and bind to inhibitory regions of membrane-bound GPx4. Fragment 6 was not investigated further since it resides mainly in the water core of the mmRM model, and while interesting, it falls outside of our focus for this study. While all the five selected fragment 1 analogues produced reasonable CSPs in the membrane interface of GPx4; none produced titration curves that indicated enhanced binding (Table S1). […]

[2] = DLS check for fragment aggregation in aqueous conditions; assay type: physicochemical; settings: 15 mM, 5% DMSO
Experimental: Next, we sought to understand whether fragment hits were solely bound to the membrane-embedded form of GPx4 or could also bind to the aqueous form. We performed aqueous binding experiments with 3 fragment hits with varying hydrophobicities. Of the fragment hits with Kd < 1 mM, the most hydrophobic fragment (fragment 5, cLog D 2.05, 5-hydroxy-1,3-benzoxathiol-2-one) and a hydrophilic fragment with the strongest affinity (fragment 6, cLog D −2.14, (2-methoxyethyl)(4-pyridinylmethyl)amine hydrochloride) were selected, along with a compound with an amphipathic structure and only modest hydrophobicity (fragment 1, cLog D 1.05, 4-(phenylamino)-1,2-dihydropyridin-2-one). Aqueous GPx4 was combined with 400 μM of either fragments 1, 5, or 6 to directly compare to the mmRM experiments. […] Since our fragments have variable degrees of solubility and partitioning, we realized that a hydrophilic fragment like 6 may partition into the water core of the mmRM, essentially causing a concentration effect as observed previously.[32],[33] […]
Fragments 1, 5, and 6 were selected to perform proof-of-concept experiments in bulk aqueous conditions. […] However, the 100 mM Bis-Tris at pH 6.0 ensured that the pH was not altered. ^15N-HSQC experiments were collected, and CSPs were analyzed and compared to the top-shifting resonances determined from the mmRM experiments. […]

Structure (SMILES)	CSPs of GPx4 bound to DPC micelles [1]	Fragment aggregation by DLS [2]
O=c1oc2c(-c3ccc(Cl)c(Cl)c3)cc(O)cc2s1 [Analog 5.5]	reasonable CSPs were observed	
O=c1cc(Nc2ccccc2)cc[nH]1 [Fragment 1, 4-(phenylamino)-1,2-dihydropyridin-2-one]		a small population of large aggregating species
O=c1oc2ccc(O)cc2s1 [Fragment 5, 5-hydroxy-1,3-benzoxathiol-2-one]		a small population of large aggregating species
